# Laboratory results taken from PubChem BioAssay AID1053169 (The Scripps Research Institute Molecular Screening Center, 2014).
# Calls of active or inactive are those of the source. How the calls were made is not given here.
# Target: Methyl-CpG-binding domain protein 2 (Homo sapiens) (UniProt Q9UBB5)
# Assay: inhibitors of MBD2 binding to methylated DNA, dose response, biochemical, TR-FRET, DNA-binding domain, late stage (AID 1053169)
# Settings: TR-FRET MBD2-DBD binding to methylated oligonucleotide
# Methyl-CpG-binding domain protein 2 (Homo sapiens), sequence (Q9UBB5 whole entry, looked up, the tested form may be a part): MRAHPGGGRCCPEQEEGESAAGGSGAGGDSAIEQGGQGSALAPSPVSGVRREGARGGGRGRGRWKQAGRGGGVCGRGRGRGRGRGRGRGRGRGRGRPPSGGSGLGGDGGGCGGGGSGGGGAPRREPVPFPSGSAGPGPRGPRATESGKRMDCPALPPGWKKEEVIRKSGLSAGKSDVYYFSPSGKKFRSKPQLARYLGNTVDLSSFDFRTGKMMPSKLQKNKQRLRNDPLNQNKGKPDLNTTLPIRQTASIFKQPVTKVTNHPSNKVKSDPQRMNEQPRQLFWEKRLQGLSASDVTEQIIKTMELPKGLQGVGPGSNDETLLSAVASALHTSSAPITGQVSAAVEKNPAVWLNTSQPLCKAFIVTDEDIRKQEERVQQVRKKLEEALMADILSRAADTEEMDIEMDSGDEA
row,SMILES,IC50
1,COc1ccc(NC(=O)Cn2cc(C(C)=O)c3ccccc32)cc1,> 43.8 µM (inactive)
2,O=C(CSc1nc(-c2ccccc2)c(-c2ccccc2)o1)N1CCOCC1,> 43.8 µM (inactive)
3,CCOC(=O)c1ccc(NC(=O)COc2ccc(CNCCO)cc2OCC)cc1,> 43.8 µM (inactive)
4,O=C(Nc1ccc(OCc2ccccc2)cc1)c1ccccc1,> 43.8 µM (inactive)
5,Cc1ccc(Cl)cc1N1CCN(S(=O)(=O)c2ccc3c(c2)NC(=O)C(C)C(=O)N3)CC1 (stereo not given),> 43.8 µM (inactive)
6,COc1ccc(C(=O)N2CCC(C(=O)Nc3ccc(C)cc3)CC2)cc1,> 43.8 µM (inactive)
7,CCCCn1c(NC(C)CC)nc2c1c(=O)[nH]c(=O)n2C (stereo not given),> 43.8 µM (inactive)
8,CC(=O)N(c1ccccc1)c1nc(/C=C/C(=O)Nc2c(C)cc(C)cc2C)cs1,> 43.8 µM (inactive)
9,COc1ccc(NC(=O)COC(=O)CCc2ccc(S(=O)(=O)N3CCOCC3)cc2)cc1Cl,> 43.8 µM (inactive)

# Results, then the molecule that gave them:
row,IC50,SMILES
1,> 43.8 µM (inactive),CCOc1ccc(S(=O)(=O)N2CCCC(C(=O)NCC3CCCO3)C2)cc1Cl (stereo not given)
2,> 43.8 µM (inactive),CC(C)n1nc(C(=O)Nc2nc3ccccc3[nH]2)c2ccccc2c1=O
3,> 43.8 µM (inactive),Cc1cc(C)n2nc(CC(=O)NCc3ccc(F)cc3)nc2n1
4,> 43.8 µM (inactive),CCc1cccc(OCC(=O)Nc2ccc(S(=O)(=O)Nc3ccccn3)cc2)c1
5,> 43.8 µM (inactive),CSc1ccc(OC2CCCCC2NS(=O)(=O)c2ccc(Cl)cc2)cc1 (stereo not given)
6,> 43.8 µM (inactive),CCOC(=O)c1oc2ccc(CNC(C)(C)C)c(Cl)c2c1C
7,> 43.8 µM (inactive),CC(C)C(=O)Nc1nnc(SCC(=O)NC2CCCC2)s1
8,> 43.8 µM (inactive),CSc1ccc(OC2CCCCC2NS(=O)(=O)c2ccccc2)cc1 (stereo not given)
9,> 43.8 µM (inactive),COc1ccc(NC(=O)CN2CCN(c3ccccc3C)CC2)cc1
10,> 43.8 µM (inactive),O=C(CSc1ccccn1)Nc1ccc(N2CCOCC2)cc1
11,> 43.8 µM (inactive),COc1ccccc1C(=O)COC(=O)c1ccc(N(C)C)cc1
